Assays:
HflX ΔL372 = target: T1, HflX ΔL372 (Escherichia coli, UniProt P25519); assay: [γ-32P]GTP hydrolysis, phosphate release, multiple turnover; assay type: biochemical; conditions: ribosome-stimulated GTPase; 1 uM HflX, 125 uM GTP, 1 uM ribosomes per methods; labelled compound
T1 construct: C-terminal truncation: codon Leu372 (elsewhere printed Lys372) replaced by amber stop; N-terminal His6-tag, pET28a

HflX (wild-type) = target: T2, HflX (wild-type) (Escherichia coli, UniProt P25519); assay: stopped-flow light scattering of […] ribosome splitting; assay type: biochemical; conditions: 1 uM HflX, 125 uM nucleotide, 0.15 uM 70S ribosomes, 5 mM Mg2+, 20 °C; compared with apo HflX; indirect functional read-out
T2 construct: full length, N-terminal His6-tag, pET28a
T2 sequence (P25519 whole entry): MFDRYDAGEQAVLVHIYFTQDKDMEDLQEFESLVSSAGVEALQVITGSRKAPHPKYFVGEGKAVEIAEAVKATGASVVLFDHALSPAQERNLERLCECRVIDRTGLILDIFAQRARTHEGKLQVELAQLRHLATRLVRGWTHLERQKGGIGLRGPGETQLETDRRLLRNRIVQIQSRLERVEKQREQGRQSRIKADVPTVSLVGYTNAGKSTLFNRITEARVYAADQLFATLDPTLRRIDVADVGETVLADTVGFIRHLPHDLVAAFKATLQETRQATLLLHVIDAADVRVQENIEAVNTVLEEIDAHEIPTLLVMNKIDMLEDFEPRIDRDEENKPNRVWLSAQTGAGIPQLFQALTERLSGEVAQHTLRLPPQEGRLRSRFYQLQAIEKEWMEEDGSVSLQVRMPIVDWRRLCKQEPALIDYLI

T1 sequence (P25519 1-371): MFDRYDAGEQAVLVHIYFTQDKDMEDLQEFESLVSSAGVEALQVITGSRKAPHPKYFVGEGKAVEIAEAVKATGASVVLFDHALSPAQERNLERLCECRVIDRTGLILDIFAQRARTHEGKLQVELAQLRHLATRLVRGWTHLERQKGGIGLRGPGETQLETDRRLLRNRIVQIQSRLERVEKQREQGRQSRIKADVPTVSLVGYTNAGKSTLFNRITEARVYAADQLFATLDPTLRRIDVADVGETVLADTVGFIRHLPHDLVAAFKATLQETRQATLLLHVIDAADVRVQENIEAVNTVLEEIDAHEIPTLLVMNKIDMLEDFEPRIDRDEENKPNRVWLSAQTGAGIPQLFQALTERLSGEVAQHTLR

SMILES | [γ-32P]GTP hydrolysis, phosphate release, multiple turnover (HflX ΔL372) | stopped-flow light scattering of 70S ribosome splitting (HflX (wild-type))
Nc1nc2c(ncn2[C@@H]2O[C@H](COP(=O)(O)OP(=O)(O)OP(=O)(O)O)[C@@H](O)[C@H]2O)c(=O)[nH]1 [GTP] | we tested the ΔL372 truncation variant for GTP hydrolysis finding that it is still active | 
Nc1nc2c(ncn2[C@@H]2O[C@H](COP(=O)(O)OP(=O)(O)NP(=O)(O)O)[C@@H](O)[C@H]2O)c(=O)[nH]1 [GDPNP] |  | HflX•GDPNP dissociated ribosomes to a greater extent than HflX•GDP

Source: paper PMC4770234, “The conserved GTPase HflX is a ribosome splitting factor that binds to the E-site of the bacterial ribosome” (Nucleic Acids Research, 2016)
